Experimental findings from US20250066286A1, “COMPOSITIONS OF (Z)-ENDOXIFEN AND METHODS OF ENRICHMENT THEREOF” (Atossa Therapeutics, Inc., priority 2022, published 2025) are described below.

This series in a line: (Z)-Endoxifen recovery by solvent evaporation (XRPD). It is filed as physicochemical. The method, then: For the single-solvent evaporations, 10 mg (Z)-endoxifen was dissolved in 1 ml of various solvents in which (Z)-endoxifen has >1000 mg/ml solubility (“very soluble”), 100-1000 mg/ml solubility (“freely soluble”), 33-100 mg/ml solubility (“soluble”), and 10-33 mg/ml solubility (“sparingly soluble”). The solutions were stirred for approximately 60 minutes, then left to evaporate. Following (Z)-endoxifen dissolution to a concentration of 10 mg/ml, all solvents generated clear solutions in which the (Z)-endoxifen completely dissolved. The solutions were evaporated at either room temperature (17-25° C.) or elevated temperature (40-60° C.). All evaporations were performed at 1 atmosphere pressure. The solids obtained from the evaporations were analyzed by XRPD.
For the multi-solvent evaporations, 40 mg (Z)-endoxifen was dissolved in either ethanol/water or THF/acetone mixtures. For the water/ethanol evaporations, 20 ml of 70/30 ethanol/water (v/v) mixtures (achieving concentrations of 2 mg/ml (Z)-endoxifen). The white suspensions were incubated for 3 days at 50° C., yielding clear solutions which were then left to evaporate at elevated temperatures. These analyses were repeated over 4 replicates. For the THF/acetone evaporations, 60 mg (Z)-endoxifen were dissolved in 1.5 ml of a multi-solvent system containing tetrahydrofuran (THF) and acetone in a 40/60 (v/v) mixture. The resultant clear solution was filtered and left to evaporate at room temperature.

In the case of `CC/C(=C(\c1ccc(O)cc1)c1ccc(OCCNC)cc1)c1ccccc1` [(Z)-endoxifen, (Z)-4-(1-(4-(2-(methylamino)ethoxy)phenyl)-2-phenylbut-1-enyl)phenol], the “Output Main phase [phase]” value is “Form I” (EVHT: butyl acetate, 10 mg/mL, evaporation at 60° C.); “amorphous” (EVHT: dimethylformamide, 10 mg/mL, evaporation at 60° C.); “amorphous” (EVHT: ethanol/water 70/30 v/v, 2 mg/mL, evaporation at 60° C. (4 replicates)); “amorphous” (EVHT: methyl isobutyl ketone, 10 mg/mL, evaporation at 60° C.); “amorphous” (EVHT: toluene, 10 mg/mL, evaporation at 60° C.); “Form IV” (EVRT: 2-propanol, 10 mg/mL, evaporation at RT). The “Output Main phase [phase]” value is reported as “Form I” (EVRT: acetone, 10 mg/mL, evaporation at RT); “Form I” (EVRT: acetonitrile, 10 mg/mL, evaporation at RT); “Form I” (EVRT: ethyl acetate, 10 mg/mL, evaporation at RT); “Form I” (EVRT: methanol, 10 mg/mL, evaporation at RT); “Form I” (EVRT: tetrahydrofuran/acetone 40/60 v/v, 40 mg/mL, evaporation at RT).
